In article PMC10408569, “Recruitment of hexahydroquinoline as anticancer scaffold targeting inhibition of wild and mutants EGFR (EGFR^WT, EGFR^T790M, and EGFR^L858R)” (Journal of Enzyme Inhibition and Medicinal Chemistry, 2023):

Key:
HL-60(TB) = test: NCI-60 anticancer screening (SRB); format: cell-based; conditions: Homo sapiens, leukemia, one dose 10 μM, read-out: Growth Inhibition Percentage (GI %)
K-562 = test: NCI-60 anticancer screening (SRB); format: cell-based; conditions: Homo sapiens, K562; K-562, leukemia; one dose 10 μM; read-out: Growth Inhibition Percentage (GI %)
MOLT-4 = test: NCI-60 anticancer screening (SRB); format: cell-based; conditions: Homo sapiens; MOLT-4, leukemia; one dose 10 μM; read-out: Growth Inhibition Percentage (GI %)
RPMI-8226 = test: NCI-60 anticancer screening (SRB); format: cell-based; conditions: Homo sapiens; RPMI-8226, leukemia; one dose 10 μM; read-out: Growth Inhibition Percentage (GI %)
SR = test: NCI-60 anticancer screening (SRB); format: cell-based; conditions: Homo sapiens, leukemia, one dose 10 μM, read-out: Growth Inhibition Percentage (GI %)
A549/ATCC = test: NCI-60 anticancer screening (SRB); format: cell-based; conditions: Homo sapiens; A549/ATCC, NSC lung cancer; one dose 10 μM; read-out: Growth Inhibition Percentage (GI %)
HOP-62 = test: NCI-60 anticancer screening (SRB); format: cell-based; conditions: Homo sapiens; HOP-62, NSC lung cancer; one dose 10 μM; read-out: Growth Inhibition Percentage (GI %)
NCI-H226 = test: NCI-60 anticancer screening (SRB); format: cell-based; conditions: Homo sapiens; NCI-H226, NSC lung cancer; one dose 10 μM; read-out: Growth Inhibition Percentage (GI %)
NCI-H322M = test: NCI-60 anticancer screening (SRB); format: cell-based; conditions: Homo sapiens, NSC lung cancer, one dose 10 μM, read-out: Growth Inhibition Percentage (GI %)
NCI-H522 = test: NCI-60 anticancer screening (SRB); format: cell-based; conditions: Homo sapiens; NCI-H522, NSC lung cancer; one dose 10 μM; read-out: Growth Inhibition Percentage (GI %)
HCC-2998 = test: NCI-60 anticancer screening (SRB); format: cell-based; conditions: Homo sapiens; HCC-2998, colon cancer; one dose 10 μM; read-out: Growth Inhibition Percentage (GI %)
HCT-15 = test: NCI-60 anticancer screening (SRB); format: cell-based; conditions: Homo sapiens; HCT-15, colon cancer; one dose 10 μM; read-out: Growth Inhibition Percentage (GI %)
KM 12 = test: NCI-60 anticancer screening (SRB); format: cell-based; conditions: Homo sapiens, KM12; KM 12, colon cancer; one dose 10 μM; read-out: Growth Inhibition Percentage (GI %)
SW-620 = test: NCI-60 anticancer screening (SRB); format: cell-based; conditions: Homo sapiens; SW-620, colon cancer; one dose 10 μM; read-out: Growth Inhibition Percentage (GI %)
SF-268 = test: NCI-60 anticancer screening (SRB); format: cell-based; conditions: Homo sapiens; SF-268, CNS cancer; one dose 10 μM; read-out: Growth Inhibition Percentage (GI %)
SNB-19 = test: NCI-60 anticancer screening (SRB); format: cell-based; conditions: Homo sapiens; SNB-19, CNS cancer; one dose 10 μM; read-out: Growth Inhibition Percentage (GI %)
SNB-75 = test: NCI-60 anticancer screening (SRB); format: cell-based; conditions: Homo sapiens; SNB-75, CNS cancer; one dose 10 μM; read-out: Growth Inhibition Percentage (GI %)
LOX IMVI = test: NCI-60 anticancer screening (SRB); format: cell-based; conditions: Homo sapiens, melanoma, one dose 10 μM, read-out: Growth Inhibition Percentage (GI %)
MDA-MB-435 = test: NCI-60 anticancer screening (SRB); format: cell-based; conditions: Homo sapiens; MDA-MB-435, melanoma; one dose 10 μM; read-out: Growth Inhibition Percentage (GI %)
SK-MEL-2 = test: NCI-60 anticancer screening (SRB); format: cell-based; conditions: Homo sapiens; SK-MEL-2, melanoma; one dose 10 μM; read-out: Growth Inhibition Percentage (GI %)
SK-MEL-5 = test: NCI-60 anticancer screening (SRB); format: cell-based; conditions: Homo sapiens; SK-MEL-5, melanoma; one dose 10 μM; read-out: Growth Inhibition Percentage (GI %)
UACC-257 = test: NCI-60 anticancer screening (SRB); format: cell-based; conditions: Homo sapiens; UACC-257, melanoma; one dose 10 μM; read-out: Growth Inhibition Percentage (GI %)
OVCAR-3 = test: NCI-60 anticancer screening (SRB); format: cell-based; conditions: Homo sapiens; OVCAR-3, ovarian cancer; one dose 10 μM; read-out: Growth Inhibition Percentage (GI %)
OVCAR-4 = test: NCI-60 anticancer screening (SRB); format: cell-based; conditions: Homo sapiens; OVCAR-4, ovarian cancer; one dose 10 μM; read-out: Growth Inhibition Percentage (GI %)
OVCAR-5 = test: NCI-60 anticancer screening (SRB); format: cell-based; conditions: Homo sapiens; OVCAR-5, ovarian cancer; one dose 10 μM; read-out: Growth Inhibition Percentage (GI %)
OVCAR-8 = test: NCI-60 anticancer screening (SRB); format: cell-based; conditions: Homo sapiens; OVCAR-8, ovarian cancer; one dose 10 μM; read-out: Growth Inhibition Percentage (GI %)
SK-OV-3 = test: NCI-60 anticancer screening (SRB); format: cell-based; conditions: Homo sapiens; SK-OV-3, ovarian cancer; one dose 10 μM; read-out: Growth Inhibition Percentage (GI %)
ACHN = test: NCI-60 anticancer screening (SRB); format: cell-based; conditions: Homo sapiens, renal cancer, one dose 10 μM, read-out: Growth Inhibition Percentage (GI %)
RXF 393 = test: NCI-60 anticancer screening (SRB); format: cell-based; conditions: Homo sapiens; RXF 393, renal cancer; one dose 10 μM; read-out: Growth Inhibition Percentage (GI %)
T-47D = test: NCI-60 anticancer screening (SRB); format: cell-based; conditions: Homo sapiens, T47D, breast cancer, one dose 10 μM, read-out: Growth Inhibition Percentage (GI %)
MDA-MB-468 = test: NCI-60 anticancer screening (SRB); format: cell-based; conditions: Homo sapiens; MDA-MB-468, breast cancer; one dose 10 μM; read-out: Growth Inhibition Percentage (GI %)
NCI 60 cancer cell lines = test: NCI-60 anticancer screening (SRB), whole panel; format: cell-based, human; conditions: mean across the NCI-60 panel; one dose 10 μM

Structure (SMILES) | inhibition at 10 µM (HL-60(TB)) [%] | inhibition at 10 µM (K-562) [%] | inhibition at 10 µM (MOLT-4) [%] | inhibition at 10 µM (RPMI-8226) [%] | inhibition at 10 µM (SR) [%] | inhibition at 10 µM (A549/ATCC) [%] | inhibition at 10 µM (HOP-62) [%] | inhibition at 10 µM (NCI-H226) [%] | inhibition at 10 µM (NCI-H322M) [%] | inhibition at 10 µM (NCI-H522) [%] | inhibition at 10 µM (HCC-2998) [%] | inhibition at 10 µM (HCT-15) [%] | inhibition at 10 µM (KM 12) [%] | inhibition at 10 µM (SW-620) [%] | inhibition at 10 µM (SF-268) [%] | inhibition at 10 µM (SNB-19) [%] | inhibition at 10 µM (SNB-75) [%] | inhibition at 10 µM (LOX IMVI) [%] | inhibition at 10 µM (MDA-MB-435) [%] | inhibition at 10 µM (SK-MEL-2) [%] | further results
CCOC(=O)C1=C(N)N(c2ccc(C)cc2)C2=C(C(=O)CC(C)(C)C2)C1c1ccccn1 (racemic) [12b, (±)-Ethyl 2-amino-7,7-dimethyl-1–(4-methylphenyl)-5-oxo-1-phenyl-4-(pyrdin-2-yl)-1,4,5,6,7,8-hexahydroquinoline-3-carboxylate] | < 10 | < 10 | < 10 | < 10 | < 10 | < 10 | < 10 | < 10 | < 10 | < 10 | < 10 | < 10 | < 10 | < 10 | 14 | < 10 | 19 | < 10 | < 10 | < 10 | inhibition at 10 µM (SK-MEL-5): 13%; inhibition at 10 µM (UACC-257): < 10%; inhibition at 10 µM (OVCAR-3): < 10%; inhibition at 10 µM (OVCAR-4): < 10%; inhibition at 10 µM (OVCAR-5): < 10%; inhibition at 10 µM (OVCAR-8): < 10%; inhibition at 10 µM (SK-OV-3): < 10%; inhibition at 10 µM (ACHN): < 10%; inhibition at 10 µM (RXF 393): < 10%; inhibition at 10 µM (T-47D): < 10%; inhibition at 10 µM (MDA-MB-468): 82%; GI % mean (NCI 60 cancer cell lines): - ((-) = GI % mean less than 10); melting point: 196 to 198 °C
CCOC(=O)C1=C(N)N(c2ccccc2)C2=C(C(=O)CC(C)(C)C2)C1c1cccc(Cl)c1Cl (racemic) [10a, (±)-Ethyl 2-amino-4–(2,3-dichlorophenyl)-7,7-dimethyl-5-oxo-1-phenyl-1,4,5,6,7,8-hexahydroquinoline-3-carboxylate] | 54 | 40 | 60 | 49 | 44 | 39 | 59 | 60 | 22 | 25 | 13 | 34 | 23 | < 10 | 34 | 58 | 43 | 22 | 13 | 41 | inhibition at 10 µM (SK-MEL-5): 22%; inhibition at 10 µM (UACC-257): 15%; inhibition at 10 µM (OVCAR-3): 13%; inhibition at 10 µM (OVCAR-4): 34%; inhibition at 10 µM (OVCAR-5): 12%; inhibition at 10 µM (OVCAR-8): 41%; inhibition at 10 µM (SK-OV-3): 18%; inhibition at 10 µM (ACHN): 42%; inhibition at 10 µM (RXF 393): 47%; inhibition at 10 µM (T-47D): 28%; inhibition at 10 µM (MDA-MB-468): 52%; GI % mean (NCI 60 cancer cell lines): 35%; melting point: 235 to 237 °C
CCOC(=O)C1=C(N)N(c2ccccc2)C2=C(C(=O)CC(C)(C)C2)C1c1ccc(OC)cc1 (racemic) [8f, (±)-Ethyl2-amino-4–(4-methoxyphenyl)-7,7-dimethyl-5-oxo-1-phenyl-1,4,5,6,7,8-hexahydroquinoline-3-carboxylate] | < 10 | < 10 | 14 | 15 | 18 | < 10 | < 10 | 12 | < 10 | < 10 | < 10 | < 10 | < 10 | < 10 | < 10 | 14 | < 10 | < 10 | < 10 | 16 | inhibition at 10 µM (SK-MEL-5): < 10%; inhibition at 10 µM (UACC-257): < 10%; inhibition at 10 µM (OVCAR-3): < 10%; inhibition at 10 µM (OVCAR-4): < 10%; inhibition at 10 µM (OVCAR-5): < 10%; inhibition at 10 µM (OVCAR-8): < 10%; inhibition at 10 µM (SK-OV-3): < 10%; inhibition at 10 µM (ACHN): < 10%; inhibition at 10 µM (RXF 393): < 10%; inhibition at 10 µM (T-47D): 11%; inhibition at 10 µM (MDA-MB-468): < 10%; GI % mean (NCI 60 cancer cell lines): - ((-) = GI % mean less than 10); melting point: 169 to 171 °C
